Measurements: patent US8378114B2, “N-2-(hetero)arylethylcarboxamide derivative, and pest-controlling agent comprising the same” (Nihon Nohyaku Co., Ltd., priority 2006, dated 2013)

What follows are molecules tested on southern root-knot nematode (Meloidogyne incognita) (assay: Test on the controlling efficacy against southern root-knot nematode). Conditions: melon nursery plant, plant foot irrigation, 500 ppm, 8 days after inoculation.
Assay type: in vivo
Parameters: key: A: No root knot.; B: Apparently smaller number of root knots than in non-treated section were present.; C: Root knots in the number equivalent to or higher than in non-treated section were present
Description: An emulsion prepared by diluting an emulsifiable concentrate of the compound of the present invention, which was prepared in accordance with Formulation Example 1, to 500 ppm was irrigated to the plant foot of a pot-cultivated nursery plant raised from the seed of melon. One day after the irrigation, an aqueous suspension (about 500 nematodes/ml) of southern root-knot nematode was inoculated (soil irrigation) to a treated section and a non-treated section, and the pot was placed in a greenhouse at 25° C. Eight days after the inoculation, the root was washed with water, the number of root knots was counted, and the effect was assessed according to the following criteria of judgment. • Criteria of Judgment • A: No root knot. • B: Apparently smaller number of root knots than in non-treated section were present. • C: Root knots in the number equivalent to or higher than in non-treated section were present.

| SMILES | effect on number of root knots, criteria of judgment |
| --- | --- |
| O=C(NCCc1ccc(Cl)cc1Cl)c1ccccc1C(F)(F)F [1-16] | B |
| Cc1nccnc1C(=O)NCCc1ccc(-c2ccc(OC(F)(F)F)cc2)cc1 [3″-48] | B |
| O=C(NCC1(c2ccc(Cl)cc2Cl)CC1)c1nccnc1Cl [3′-43] | B |
| O=C(NCC1(c2ccc(Cl)cc2Cl)CC1)c1ccccc1C(F)(F)F [1-34] | B |
| CC(Cc1ccc(Cl)cc1Cl)NC(=O)c1nccnc1Cl (stereo not drawn) [3′-44] | B |

The molecules below were run on causal fungus of apple tree scab (Venturia inaequalis) (assay: Test on the controlling efficacy against apple tree scab). Conditions: apple seedling, foliar application, 4-fold concentration 200 ppm, 14 days after inoculation.
Assay type: in vivo
Text: A seedling of an apple tree (the variety: Ohrin) grown in a pot was subjected to foliar application with a diluted emulsion of the emulsifiable concentrate of the compound of the present invention prepared in accordance with Formulation Example 1, which diluted emulsion was produced by diluting the concentrate with water to the specifically determined volume. On the following day after the application, the seedling was inoculated by spraying with a spore suspension of the causal fungus of apple tree scab (Venturia inaequalis) as obtained by culture on the PSA medium and maintained at 20° C. under humid conditions. Fourteen days after the inoculation, the protective value (%) was determined in accordance with the equation (1), and the controlling efficacy was assessed according the below-described criteria of judgment. [formula]

| SMILES | controlling efficacy, criteria of judgment (protective value) |
| --- | --- |
| O=C(NCCc1cccc(C(F)(F)F)c1)c1c(Cl)cccc1Cl [comparison compound A, 2,6-dichloro-N-[2-{3-(trifluoromethyl)phenyl}ethyl]benzamide] | 0 (Less than 9% in protective value) |
